Source: paper PMC7217150, “Synthesis, Modification, and Biological Evaluation of a Library of Novel Water‐Soluble Thiopyridone‐Based Organometallic Complexes and Their Unexpected (Biological) Behavior” (Chemistry (Weinheim an Der Bergstrasse, Germany), 2020)
Read-outs that look alike come from different tables or passages of the source.

Legend:
SW480 [1] = assay: MTT cytotoxicity assay, monolayer culture; assay type: cell-based, human
Description: (§1) A549 (non‐small cell lung carcinoma), SW480 and HCT‐116 (both colon carcinoma) were kindly provided by Brigitte Marian, Institute of Cancer Research, Department of Medicine I, Medical University of Vienna, Austria. The cell line CH1/PA‐1 (ovarian teratocarcinoma) was kindly provided by Lloyd R. Kelland (CRC Centre for Cancer Therapeutics, Institute of Cancer Research, Sutton, UK). All cell culture media (including supplements) and reagents were obtained from Sigma–Aldrich, and all plasticware from StarLab, unless indicated otherwise.

CH1/PA‐1 [2] = assay: MTT cytotoxicity assay, monolayer culture; assay type: cell-based, human; settings: CH1/PA‐1, MTT assay, exposure time 96 h, means ± SDs
Description: as §1

A549 [3] = assay: MTT cytotoxicity assay, monolayer culture; assay type: cell-based, human; settings: exposure time 96 h, means ± SDs
Description: as §1

SW480 cells = settings: ICP‐MS, 2 h exposure
CH1/PA‐1 [4] = settings: CH1/PA‐1 multicellular spheroids, 96 h drug exposure
Experimental: (§2) A549, CH1/PA‐1 and SW480 cells were grown in MEM supplemented with 10 % fetal calf serum (FCS; from Biowest), 1 mM sodium pyruvate, 4 mM L‐glutamine and 1 % v/v nonessential amino acids (from 100×solution) and L‐glutamine. HCT‐116 cells were maintained in McCoy's 5a medium supplemented with 10 % FCS and L‐glutamine. Adherent monolayer cultures were grown in 75 cm^2 flasks. For spheroid culture, A549, CH1/PA‐1 and HCT‐116 cells were harvested from culture flasks by trypsinization, resuspended in their respective supplemented medium and seeded in ultra‐low attachment round‐bottom 96‐well plates (Corning Costar) at a density of 500 viable cells per well. Plates were incubated for 96 h to allow spheroid formation prior to use for the tests. All cultures were incubated in a humidified incubator at 37 °C with 5 % CO2.
(§3) Cytotoxicity in multicellular spheroids was determined by the fluorimetric resazurin assay. […] After incubation for 96 h, 20 μL of a 440 μM resazurin sodium salt solution in PBS were added to each well, and the plates were incubated for further 16 h. Fluorescence was measured with a Synergy HT reader (BioTek) with an excitation wavelength of 530 nm and emission wavelength of 590 nm. For both assays, at least three independent experiments (or two in case of poor activity) were performed, each with triplicates per concentration level, and the 50 % inhibitory concentrations (IC50) relative to untreated controls were interpolated from concentration‐effect curves.

HCT‐116 = HCT‐116 multicellular spheroids, 96 h drug exposure
Experimental: as §2, §3

A549 [5] = settings: A549 multicellular spheroids, 96 h drug exposure
Experimental: as §2, §3

SW480 [6] = assay: Cell cycle distribution, flow cytometry with propidium iodide; assay type: cell-based, human; settings: for Cell cycle distribution G1, % / Cell cycle distribution G2/M, % / Cell cycle distribution S, %: 24 h, mean ± SD; for Relative change in cell cycle distribution G1, % / Relative change in cell cycle distribution G2/M, % / Relative change in cell cycle distribution S, %: difference to untreated control; for decrease in G1 phase: SW480 cells
Experimental: (§4) The influence of two ligands, as well as seven complexes on cell cycle distribution was tested in two of the cancer cell lines (SW480, CH1/PA‐1) by means of flow cytometry. The cell cycle distribution (G1, S, G2/M phase in %; Table S37) was investigated upon DNA staining with propidium iodide.
(§5) CH1/PA‐1 and SW480 cells were harvested by trypsinization, 8×10^4 and 1.2×10^5 cells per well were seeded into 12‐well plates, respectively. The cells were allowed to attach and resume proliferation for 24 h after the seeding. […] After continuous exposure for 24 h at 37 °C and under 5 % CO2, the cells were harvested by trypsinization and centrifuged at 300 g for 3 min. The cells were washed with PBS (1 mL) and resuspended in propidium iodine (PI) containing HSF buffer (600 μL; 0.1 % Triton X‐100, 0.1 % sodium citrate, 50 μg mL^−1 PI in PBS). After incubation overnight at 4 °C in the dark, 5×10^3 cells were measured by flow cytometry with a Millipore Guava easyCyte 8HT instrument (Luminex, USA). Data were evaluated by means of FlowJo software (Tree Star) using Watson Pragmatic algorithms.60 The fitting of the curve was chosen to keep the root mean square error between 1.0 and 2.0, alongside with good fitting visual model.

CH1/PA‐1 [7] = assay: as above; assay type: cell-based, human; settings: for Cell cycle distribution G1, % / Cell cycle distribution G2/M, % / Cell cycle distribution S, %: 24 h, mean ± SD; for Relative change in cell cycle distribution G1, % / Relative change in cell cycle distribution G2/M, % / Relative change in cell cycle distribution S, %: difference to untreated control
Experimental: as §4, §5

[8] = pH 7.2
Experimental: Stock solutions containing the desired complex in DMSO (5 mM) were diluted with phosphate buffer (pH 7.2) to a final concentration of […] compound in 1 % DMSO/20 mM buffer and directly analyzed by four different isocratic UHPLC runs (Δ=5 %). The lipophilicity parameters logkw and lipophilicity indices φ0 were calculated according to literature.7, 37

[9] = tested on: human cancer cell lines CH1/PA‐1, SW480, A549; settings: tested cancer cell lines
[10] = SW480, MTT assay, exposure time 96 h, means ± SDs

## CC1=C2[O][Rh+]([Cl])[S]=C2C=CN1C.Cc1c(C)c(C)[c-](C)c1C [Compound 5 a, Chlorido[1,2‐dimethyl‐3‐oxo‐κO‐pyridine‐4(1H)‐thionato‐κS](η^5‐1,2,3,4,5‐pentamethylcyclopentadienyl)rhodium(III)]
SW480 [1]; [10]
  IC50: 5.5 ± 1.1 µM
SW480 [1]; SW480, as listed in Table 3
  IC50: 5.54 ± 1.07 µM
CH1/PA‐1 [2]
  IC50: 11 ± 2 µM
A549 [3]
  IC50: 117 ± 19 µM
SW480 cells; 50 μM
  Cellular accumulation: 118±35 fg/cell
CH1/PA‐1 [4]
  IC50: 144 ± 7 µM
HCT‐116
  IC50: 140 ± 20 µM
A549 [5]
  IC50: 367 ± 24 µM
SW480 [6]; SW480, 5 µM
  Cell cycle distribution G1, %: 44 ± 1%
  Cell cycle distribution G2/M, %: 26 ± 2%
  Cell cycle distribution S, %: 30 ± 4%
  Relative change in cell cycle distribution G1, %: -4%
  Relative change in cell cycle distribution G2/M, %: 7%
  Relative change in cell cycle distribution S, %: -3%
SW480 [6]; SW480, 10 µM
  Cell cycle distribution G1, %: 38 ± 4%
  Cell cycle distribution G2/M, %: 20 ± 4%
  Cell cycle distribution S, %: 42 ± 1%
  Relative change in cell cycle distribution G1, %: -10%
  Relative change in cell cycle distribution G2/M, %: 1%
  Relative change in cell cycle distribution S, %: 9%
SW480 [6]; SW480, 20 µM
  Cell cycle distribution G1, %: 46 ± 3%
  Cell cycle distribution G2/M, %: 12 ± 1%
  Cell cycle distribution S, %: 42 ± 2%
  Relative change in cell cycle distribution G1, %: -2%
  Relative change in cell cycle distribution G2/M, %: -7%
  Relative change in cell cycle distribution S, %: 9%
SW480 [6]; 10 μM
  decrease in G1 phase: 10%
CH1/PA‐1 [7]; CH1/PA-1, 10 µM
  Cell cycle distribution G1, %: 28 ± 1%
  Cell cycle distribution G2/M, %: 28 ± 5%
  Cell cycle distribution S, %: 44 ± 5%
  Relative change in cell cycle distribution G1, %: -12%
  Relative change in cell cycle distribution G2/M, %: 4%
  Relative change in cell cycle distribution S, %: 8%
CH1/PA‐1 [7]; CH1/PA-1, 20 µM
  Cell cycle distribution G1, %: 27 ± 5%
  Cell cycle distribution G2/M, %: 32 ± 4%
  Cell cycle distribution S, %: 41 ± 5%
  Relative change in cell cycle distribution G1, %: -13%
  Relative change in cell cycle distribution G2/M, %: 8%
  Relative change in cell cycle distribution S, %: 5%
CH1/PA‐1 [7]; CH1/PA-1, 40 µM
  Cell cycle distribution G1, %: 26 ± 6%
  Cell cycle distribution G2/M, %: 31 ± 2%
  Cell cycle distribution S, %: 42 ± 1%
  Relative change in cell cycle distribution G1, %: -14%
  Relative change in cell cycle distribution G2/M, %: 7%
  Relative change in cell cycle distribution S, %: 6%
CH1/PA‐1 [7]; CH1/PA‐1 cells, 40 μM
  shift of cell cycle distribution towards S and G2/M phases in total: up to 14%
[8]
  φ0 (chromatographic lipophilicity index): 5.91

## Chlorido[1‐benzyl‐2‐methyl‐3‐oxo‐κO‐pyridine‐4(1H)‐thionato‐κS](η^5‐1,2,3,4,5‐pentamethylcyclopentadienyl)rhodium(III) [Compound 5 c]
SW480 [1]; [10]
  IC50: 0.28 ± 0.02 µM
SW480 [1]; SW480, as listed in Table 3
  IC50: 0.28 ± 0.02 µM
CH1/PA‐1 [2]
  IC50: 0.37 ± 0.04 µM
A549 [3]
  IC50: 0.72 ± 0.11 µM
[9]
  IC50 values, in words: high nanomolar range
SW480 cells; 20 μM
  Cellular accumulation: 855±66 fg/cell
CH1/PA‐1 [4]
  IC50: 59 ± 10 µM
HCT‐116
  IC50: 62 ± 1 µM
A549 [5]
  IC50: 79 ± 5 µM
SW480 [6]; SW480, 2.5 µM
  Cell cycle distribution G1, %: 44 ± 10%
  Cell cycle distribution G2/M, %: 20 ± 6%
  Cell cycle distribution S, %: 36 ± 1%
  Relative change in cell cycle distribution G1, %: -4%
  Relative change in cell cycle distribution G2/M, %: 1%
  Relative change in cell cycle distribution S, %: 3%
SW480 [6]; SW480, 5 µM
  Cell cycle distribution G1, %: 44 ± 5%
  Cell cycle distribution G2/M, %: 17 ± 4%
  Cell cycle distribution S, %: 39 ± 1%
  Relative change in cell cycle distribution G1, %: -4%
  Relative change in cell cycle distribution G2/M, %: -2%
  Relative change in cell cycle distribution S, %: 6%
SW480 [6]; SW480, 10 µM
  Cell cycle distribution G1, %: 50 ± 2%
  Cell cycle distribution G2/M, %: 16 ± 5%
  Cell cycle distribution S, %: 34 ± 5%
  Relative change in cell cycle distribution G1, %: 2%
  Relative change in cell cycle distribution G2/M, %: -3%
  Relative change in cell cycle distribution S, %: 1%
SW480 [6]; at applicable concentrations
  decrease in G1 phase: < 9%
CH1/PA‐1 [7]; CH1/PA-1, 1.25 µM
  Cell cycle distribution G1, %: 40 ± 14%
  Cell cycle distribution G2/M, %: 22 ± 7%
  Cell cycle distribution S, %: 38 ± 7%
  Relative change in cell cycle distribution G1, %: 0%
  Relative change in cell cycle distribution G2/M, %: -2%
  Relative change in cell cycle distribution S, %: 2%
CH1/PA‐1 [7]; CH1/PA-1, 2.5 µM
  Cell cycle distribution G1, %: 34 ± 5%
  Cell cycle distribution G2/M, %: 24 ± 4%
  Cell cycle distribution S, %: 42 ± 3%
  Relative change in cell cycle distribution G1, %: -6%
  Relative change in cell cycle distribution G2/M, %: 0%
  Relative change in cell cycle distribution S, %: 6%
CH1/PA‐1 [7]; CH1/PA-1, 5 µM
  Cell cycle distribution G1, %: 30 ± 10%
  Cell cycle distribution S, %: 42 ± 6%
  Relative change in cell cycle distribution G1, %: -10%
  Relative change in cell cycle distribution G2/M, %: 4%
  Relative change in cell cycle distribution S, %: 6%
CH1/PA‐1 [7]; CH1/PA‐1 cells, 2.5 μM
  decrease in G1 phase: 6%
